Assay results published in patent US20080167314A1, “Condensed Imidazole Compound And Use Thereof” (priority 2004, published 2008).

Compound | melting point [°C]
Cc1cc(-c2nc3cccnn3c2-c2ccnc(NC(=O)c3ccc(Cl)cc3C)c2)ccc1F [Example 42-15, 4-chloro-N-{4-[2-(4-fluoro-3-methylphenyl)imidazo[1,2-b]pyridazin-3-yl]pyridin-2-yl}-2-methylbenzamide] | 196 to 197
Cc1cc(-c2nc3cccnn3c2-c2ccnc(NC(=O)c3cccc4ccccc34)c2)ccc1F [Example 42-20, N-{4-[2-(4-fluoro-3-methylphenyl)imidazo[1,2-b]pyridazin-3-yl]pyridin-2-yl}-1-naphthamide] | 252 to 253
Cc1cc(-c2nc3cccnn3c2-c2ccnc(NC(=O)c3ccnc(Cl)c3)c2)ccc1F [Example 42-25, 2-chloro-N-{4-[2-(4-fluoro-3-methylphenyl)imidazo[1,2-b]pyridazin-3-yl]pyridin-2-yl}isonicotinamide] | 224 to 225
Cc1cc(-c2nc3cccnn3c2-c2ccnc(NC(=O)c3ccc(C(F)(F)F)nc3)c2)ccc1F [Example 42-26, N-{4-[2-(4-fluoro-3-methylphenyl)imidazo[1,2-b]pyridazin-3-yl]pyridin-2-yl}-6-(trifluoromethyl)nicotinamide] | 225 to 226
Cc1cc(-c2nc3cccnn3c2-c2ccnc(NC(=O)c3cncc(Cl)c3)c2)ccc1F [Example 42-28, 5-chloro-N-{4-[2-(4-fluoro-3-methylphenyl)imidazo[1,2-b]pyridazin-3-yl]pyridin-2-yl}nicotinamide] | 252 to 254
Cc1cc(-c2nc3cccnn3c2-c2ccnc(NC(=O)c3cccnc3C)c2)ccc1F [Example 42-29, N-{4-[2-(4-fluoro-3-methylphenyl)imidazo[1,2-b]pyridazin-3-yl]pyridin-2-yl}-2-methylnicotinamide] | 258 to 259
Cc1cc(-c2nc3cccnn3c2-c2ccnc(NC(=O)c3ccsc3)c2)ccc1F [Example 42-32, N-{4-[2-(4-fluoro-3-methylphenyl)imidazo[1,2-b]pyridazin-3-yl]pyridin-2-yl}thiophene-3-carboxamide] | 217 to 218
Cc1cc(-c2nc3cccnn3c2-c2ccnc(NC(=O)c3ccoc3)c2)ccc1F [Example 42-33, N-{4-[2-(4-fluoro-3-methylphenyl)imidazo[1,2-b]pyridazin-3-yl]pyridin-2-yl}-3-furamide] | 199 to 200
Cc1cc(-c2nc3cccnn3c2-c2ccnc(NC(=O)c3cnccn3)c2)ccc1F [Example 42-34, N-{4-[2-(4-fluoro-3-methylphenyl)imidazo[1,2-b]pyridazin-3-yl]pyridin-2-yl}pyrazine-2-carboxamide] | 229 to 230
Cc1cccc(-c2nc3cccnn3c2-c2ccnc(NC(=O)c3ccncc3)n2)c1 [Example 44-3, N-{4-[2-(3-methylphenyl)imidazo[1,2-b]pyridazin-3-yl]pyrimidin-2-yl}isonicotinamide] | 181 to 182

Second part, the compound after the results:

melting point [°C] | Compound
251 to 252 | COc1cc(F)ccc1C(=O)Nc1cc(-c2c(-c3ccc(F)c(C)c3)nc3cccnn23)ccn1 [Example 42-8, 4-fluoro-N-{4-[2-(4-fluoro-3-methylphenyl)imidazo[1,2-b]pyridazin-3-yl]pyridin-2-yl}-2-methoxybenzamide]
191 to 192 | CSc1ccc(C(=O)Nc2cc(-c3c(-c4ccc(F)c(C)c4)nc4cccnn34)ccn2)cc1 [Example 42-9, N-{4-[2-(4-fluoro-3-methylphenyl)imidazo[1,2-b]pyridazin-3-yl]pyridin-2-yl}-4-(methylthio)benzamide]
245 to 246 | Cc1cc(-c2nc3cccnn3c2-c2ccnc(NC(=O)c3ccc(N(C)C)cc3)c2)ccc1F [Example 42-10, 4-(dimethylamino)-N-{4-[2-(4-fluoro-3-methylphenyl)imidazo[1,2-b]pyridazin-3-yl]pyridin-2-yl}benzamide]
217 to 218 | COc1cc(C(=O)Nc2cc(-c3c(-c4ccc(F)c(C)c4)nc4cccnn34)ccn2)ccc1F [Example 42-11, 4-fluoro-N-{4-[2-(4-fluoro-3-methylphenyl)imidazo[1,2-b]pyridazin-3-yl]pyridin-2-yl}-3-methoxybenzamide]
202 to 203 | COc1ccc(C(=O)Nc2cc(-c3c(-c4ccc(F)c(C)c4)nc4cccnn34)ccn2)cc1F [Example 42-12, 3-fluoro-N-{4-[2-(4-fluoro-3-methylphenyl)imidazo[1,2-b]pyridazin-3-yl]pyridin-2-yl}-4-methoxybenzamide]
224 to 225 | Cc1cc(-c2nc3cccnn3c2-c2ccnc(NC(=O)c3ccc(C(F)(F)F)cc3)c2)ccc1F [Example 42-13, N-{4-[2-(4-fluoro-3-methylphenyl)imidazo[1,2-b]pyridazin-3-yl]pyridin-2-yl}-4-(trifluoromethyl)benzamide]
225 to 226 | Cc1cc(-c2nc3cccnn3c2-c2ccnc(NC(=O)c3ccc(OC(F)(F)F)cc3)c2)ccc1F [Example 42-14, N-{4-[2-(4-fluoro-3-methylphenyl)imidazo[1,2-b]pyridazin-3-yl]pyridin-2-yl}-4-(trifluoromethoxy)benzamide]
200 to 202 | COc1ccc(C(=O)Nc2cc(-c3c(-c4ccc(F)c(C)c4)nc4cccnn34)ccn2)c(C)c1 [Example 42-18, N-{4-[2-(4-fluoro-3-methylphenyl)imidazo[1,2-b]pyridazin-3-yl]pyridin-2-yl}-4-methoxy-2-methylbenzamide]
187 to 188 | Cc1cc(-c2nc3cccnn3c2-c2ccnc(NC(=O)c3ccc4ccccc4c3)c2)ccc1F [Example 42-19, N-{4-[2-(4-fluoro-3-methylphenyl)imidazo[1,2-b]pyridazin-3-yl]pyridin-2-yl}-2-naphthamide]
225 to 226 | Cc1cc(-c2nc3cccnn3c2-c2ccnc(NC(=O)c3ccc(Cl)nc3)c2)ccc1F [Example 42-24, 6-chloro-N-{4-[2-(4-fluoro-3-methylphenyl)imidazo[1,2-b]pyridazin-3-yl]pyridin-2-yl}nicotinamide]
238 to 240 | Cc1cncc(C(=O)Nc2cc(-c3c(-c4ccc(F)c(C)c4)nc4cccnn34)ccn2)c1 [Example 42-30, N-{4-[2-(4-fluoro-3-methylphenyl)imidazo[1,2-b]pyridazin-3-yl]pyridin-2-yl}-5-methylnicotinamide]
211 to 212 | Cc1ccc(C(=O)Nc2nccc(-c3c(-c4cccc(C)c4)nc4cccnn34)n2)cc1 [Example 44-1, 4-methyl-N-{4-[2-(3-methylphenyl)imidazo[1,2-b]pyridazin-3-yl]pyrimidin-2-yl}benzamide]
193 to 194 | COc1ccc(C(=O)Nc2nccc(-c3c(-c4cccc(C)c4)nc4cccnn34)n2)cc1 [Example 44-2, 4-methoxy-N-{4-[2-(3-methylphenyl)imidazo[1,2-b]pyridazin-3-yl]pyrimidin-2-yl}benzamide]
193 to 194 | COc1ccc(C(=O)Nc2cc(-c3c(-c4cccc(C)c4)nc4ccc(N(C)C)nn34)ccn2)cc1 [Example 45-1, N-{4-[6-(dimethylamino)-2-(3-methylphenyl)imidazo[1,2-b]pyridazin-3-yl]pyridin-2-yl}-4-methoxybenzamide]
